Laboratory results reported in patent US10626092B2, “Polymorphic forms of 3-[(2-butyl-1-(2-diethylamino-ethyl)-1H-benzoimidazol-5-yl]-N-hydroxy-acrylamide and uses thereof” (MEI PHARMA, INC., priority 2016, dated 2020).
Where a name gives a salt, the structure may show the parent alone.

Columns and labels:
Format in all cases: physicochemical
[1] = Desolvation studies: equilibration at 125° C. in high boiling point solvents; conditions: two days; for Form in Ambient AAC: then accelerated aging conditions
Protocol: Using solvent equilibration of hydrates in high boiling point solvents has been reported as a method to obtaining desolvated forms. […] The experiments were started with approximately 50 mg of material and 100 μL of solvent. After equilibration, the solids were isolated from the solutions by centrifugation. The solids were allowed to dry under ambient conditions before HT-XRPD analysis was performed. The wet solids were analyzed by HT-XRPD immediately to avoid hydration under ambient conditions or under vacuum.

Variable humidity XRPD = conditions: variable humidity XRPD at 30° C.; dihydrochloride monohydrate
Description: (§1) The analytical method is described herein.
as §1
For variable humidity and temperature experiments the ANSYCO HT chamber was used, installed within the D8 Advance system diffractometer (Bruker) designed with Brag-Brentano geometry and equipped with LynxEye solid state detector. The radiation used for collecting the data was CuKα1 (λ=1.54056 Å) monochromatized by germanium crystal. The material was placed on a fixed sample holder that was mounted inside the chamber.

[2] = Long-term slurry conversion experiments
Protocol: Approximately 30 mg of the specific form was dosed in a standard HPLC vial and aliquots of 100 μL of solvent until a suspension was formed. […] The solids were isolated from the mother liquor and analyzed by HT-XRPD after mild drying under ambient conditions (ambient) and after thorough drying under vacuum (vacuum). All the solids were exposed to accelerated ageing conditions (2 days at 40° C./70% RH) and re-analyzed by HT-XRPD.

Compound: CCCCc1nc2cc(/C=C/C(=O)NO)ccc2n1CCN(CC)CC [Form 1, 3-[2-butyl-1-(2-diethylamino-ethyl)-1H-benzoimidazol-5-yl]-N-hydroxy-acrylamide dihydrochloride monohydrate]
- Form in Ambient ([1]; Anisole): Mono
- Form in Ambient AAC ([1]; Anisole): 2.5
- Form in Ambient ([1]; Cumene): Mono
- Form in Ambient AAC ([1]; Cumene, dihydrochloride monohydrate): 2.5
- Form in Ambient ([1]; N-Methyl-2-pyrrolidone, dihydrochloride monohydrate): No solids
- Form in Ambient ([1]; p-Xylene): Mono
- Form in Ambient AAC ([1]; p-Xylene): 2.5
- relative humidity at which the form is physically stable (Variable humidity XRPD): 10-85 % RH
- solid form after slurry ([2]; all ethanol/water and methanol/water mixtures at ambient conditions): transformed into the 2.5 hydrate (Form 3)
- solid form after slurry ([2]; no water present in the solvent system): conversion to the anhydrous Form 9
